{
  "source": "patent US10039761B2",
  "about": "“Co-crystals and pharmaceutical compositions comprising the same” (Vertex Pharmaceuticals Incorporated, priority 2013, dated 2018)",
  "key": {"[1]": {"test_system": "HCC-1937", "experiment": "Doxorubicin combination in triple negative breast cancer cells", "format": "cell-based", "details": "Compound (2) with doxorubicin, BRCA mutant", "method": "(§1) The cell-based experiments and assays were performed with either molecule but not always with both. Compounds (1) and (2) were generally very similar in those assays and experiments. Analysis of the combination experiments was performed using two methods: the Bliss Additivity model and the Mixtures Blend method to determine the degree of synergy, additivity, or antagonism. In the Bliss method, a matrix of Bliss scores was generated for each cell line and treatment, and a sum of the Bliss values over the range of combination concentrations tested was calculated. […] Larger average Bliss values indicate greater confidence in reporting synergy, and smaller scores indicate greater confidence in reporting antagonism. In the Mixtures Blend method combinants were added in a range of optimal ratios using design of experiment (DOE) software (DX-8 from STAT-EASE); the cells were irradiated with 2 Gy as required. Synergy was determined using statistical analysis of the data (ANOVA) to indicate linear (additivity) or statistically significant (p<0.1) non-linear (antagonism or synergy) mixes of the combinants."}, "[2]": {"test_system": "MDA-MB-468", "experiment": "Doxorubicin combination in triple negative breast cancer cells", "format": "cell-based", "details": "Compound (2) with doxorubicin, BRCA wild-type", "method": "as §1"}, "[3]": {"test_system": "HCC-1599", "experiment": "Doxorubicin combination in triple negative breast cancer cells", "format": "cell-based", "details": "Compound (2) with doxorubicin; plating density unknown; BRCA mutant", "method": "as §1"}, "[4]": {"test_system": "MDA-MB-436", "experiment": "Doxorubicin combination in triple negative breast cancer cells", "format": "cell-based", "details": "Compound (2) with doxorubicin, BRCA mutant", "method": "as §1"}, "[5]": {"test_system": "HCC-1395", "experiment": "Doxorubicin combination in triple negative breast cancer cells", "format": "cell-based", "details": "Compound (2) with doxorubicin; plating density 5000; BRCA mutant", "method": "as §1"}, "[6]": {"test_system": "HFL1", "experiment": "Combination with etoposide, viability (Bliss analysis)", "format": "cell-based, human", "details": "Compound (2) with etoposide; n = 3", "method": "as §1"}, "[7]": {"test_system": "panel of 60 cancer cell lines", "experiment": "Double combinations in 60 cancer cell line panel (ATPLite, Bliss)", "format": "cell-based", "details": "144 hours", "method": "as §1, with “combinants. Compound (2) was tested against a panel of 60 cancer cell lines (see Table 16) alone and in combination with a panel of cytotoxic and non-cytotoxic SOC agents. The 60 cancer cell lines represent lines derived from breast cancer, prostate cancer, lung cancer, acute myeloid leukemia (AML), myeloma and other cancers. Cells were removed from liquid nitrogen storage, thawed and expanded in appropriate growth media. Once expanded, cells were seeded in 384-well tissue culture treated plates at 500 cells per well. […] At the end of either 0 hours or 144 hours, cell status was analyzed using ATPLite (Perkin Elmer) to assess the biological response of cells to drug combinations.” for “combinants.”"}},
  "data": [
    {"compound": "[2H]c1nc(C)nc([2H])c1-c1cc(NC[C@@H](C)c2cccc3c(C(=O)NC)ccnc23)ncn1", "note": "[Compound (2), (S)-N-methyl-8-(1-((2′-methyl-4′,6′-dideutero-[4,5′-bipyrimidin]-6-yl)amino)propan-2-yl)quinoline-4-carboxamide]", "values": [
      {"measurement": "Average Bliss score", "setting": "[1]; plating density 5000", "result": 16.6},
      {"measurement": "Average Bliss score", "setting": "[1]; plating density 20000", "result": 15.6},
      {"measurement": "Average Bliss score", "setting": "[2]; plating density 5000", "result": 23.1},
      {"measurement": "Average Bliss score", "setting": "[2]; plating density 20000", "result": 24.7},
      {"measurement": "Average Bliss score", "setting": "[3]", "result": 14.3},
      {"measurement": "Average Bliss score", "setting": "[4]; plating density 5000", "result": 14.5},
      {"measurement": "Average Bliss score", "setting": "[4]; plating density 20000", "result": 14.4},
      {"measurement": "Average Bliss score", "setting": "[5]", "result": 11.1},
      {"measurement": "Average Bliss score", "setting": "[6]", "result": "8.7 ± 5.6 (n = 3)"},
      {"measurement": "Bliss analysis, combination effect", "setting": "[7]; in combination with bleomycin", "result": "strong synergy (greater than 10 indicates strong synergy)"},
      {"measurement": "Bliss analysis, combination effect", "setting": "[7]; in combination with doxorubicin", "result": "strong synergy (greater than 10 indicates strong synergy)"},
      {"measurement": "Bliss analysis, combination effect", "setting": "[7]; in combination with etoposide", "result": "strong synergy (greater than 10 indicates strong synergy)"}
    ]}
  ]
}
